Measurements from US12723063B2, “GIPR-agonist compounds” (Eli Lilly and Company, priority 2019, dated 2026).

How the values were obtained:
[1] = biological target: T1, human glucagon receptor (GcgR) (Homo sapiens, UniProt P47871); assay: cAMP functional assay (HTRF) in HEK293 cells in presence of 0.1% casein; format: cell-based; conditions: HEK293 cells expressing human GcgR, geometric mean, read-out: hGcgR cAMP Rel EC50 nM (SEM, n)
T1 construct: expressed in transfected cells; host or cells: HEK293
T1 sequence (P47871 26-477): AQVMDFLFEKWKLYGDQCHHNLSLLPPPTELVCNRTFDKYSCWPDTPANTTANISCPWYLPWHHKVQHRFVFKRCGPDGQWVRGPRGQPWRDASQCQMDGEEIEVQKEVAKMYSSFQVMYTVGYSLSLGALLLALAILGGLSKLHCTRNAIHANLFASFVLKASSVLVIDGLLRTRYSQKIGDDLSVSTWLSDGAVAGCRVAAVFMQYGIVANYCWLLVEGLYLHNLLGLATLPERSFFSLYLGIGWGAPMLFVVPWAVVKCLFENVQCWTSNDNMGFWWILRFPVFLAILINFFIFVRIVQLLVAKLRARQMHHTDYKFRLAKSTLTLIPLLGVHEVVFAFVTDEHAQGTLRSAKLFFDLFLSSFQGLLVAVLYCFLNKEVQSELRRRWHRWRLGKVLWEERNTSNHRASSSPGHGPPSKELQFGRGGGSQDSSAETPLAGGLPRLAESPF

[2] = biological target: T2, human glucose-dependent insulinotropic peptide receptor (GIPR) (Homo sapiens, UniProt P48546); assay: as above; format: cell-based; conditions: HEK293 cells expressing human GIPR, geometric mean, read-out: hGIPR cAMP Rel EC50 nM (SEM, n)
T2 construct: expressed in transfected cells; host or cells: HEK293
T2 sequence (P48546 22-466): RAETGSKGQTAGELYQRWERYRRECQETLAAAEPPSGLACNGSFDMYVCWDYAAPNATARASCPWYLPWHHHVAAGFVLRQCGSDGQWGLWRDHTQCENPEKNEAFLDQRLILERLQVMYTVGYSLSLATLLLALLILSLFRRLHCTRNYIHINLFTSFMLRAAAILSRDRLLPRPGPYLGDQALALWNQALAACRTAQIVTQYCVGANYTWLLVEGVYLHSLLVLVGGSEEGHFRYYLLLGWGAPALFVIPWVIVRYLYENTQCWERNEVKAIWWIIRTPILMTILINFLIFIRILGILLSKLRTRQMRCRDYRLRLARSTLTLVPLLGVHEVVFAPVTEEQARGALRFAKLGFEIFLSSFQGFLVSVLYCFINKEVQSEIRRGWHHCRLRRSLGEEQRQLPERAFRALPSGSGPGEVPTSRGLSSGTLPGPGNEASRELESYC

| SMILES | EC50 [1] | EC50 [2] |
| --- | --- | --- |
| CC[C@H](C)[C@H](NC(=O)[C@H](CO)NC(=O)[C@H](Cc1ccc(O)cc1)NC(=O)[C@H](CC(=O)O)NC(=O)[C@H](CO)NC(=O)[C@@H](NC(=O)[C@H](Cc1ccccc1)NC(=O)[C@@H](NC(=O)CNC(=O)[C@H](CCC(=O)O)NC(=O)[C@@H](C)NC(=O)[C@@H](N)Cc1ccc(O)cc1)[C@@H](C)O)[C@@H](C)CC)C(=O)N[C@@H](CC(C)C)C(=O)N[C@@H](CC(C)C)C(=O)N[C@@H](CC(=O)O)C(=O)N[C@@H](CCCCN)C(=O)N[C@@H](CCCCNC(=O)COCCOCCNC(=O)COCCOCCNC(=O)CC[C@H](NC(=O)CCCCCCCCCCCCCCCCCCC(=O)O)C(=O)O)C(=O)N[C@@H](C)C(=O)N[C@@H](CCC(N)=O)C(=O)NC(C)(C)C(=O)N[C@@H](CC(=O)O)C(=O)N[C@@H](Cc1ccccc1)C(=O)N[C@H](C(=O)N[C@@H](CC(N)=O)C(=O)N[C@@H](Cc1c[nH]c2ccccc12)C(=O)N[C@@H](CC(C)C)C(=O)N[C@@H](CC(C)C)C(=O)N[C@@H](C)C(=O)N[C@@H](CCC(N)=O)C(=O)NCC(=O)N1CCC[C@H]1C(=O)N[C@@H](CO)C(=O)N[C@@H](CO)C(=O)NCC(=O)N[C@@H](C)C(=O)N1CCC[C@H]1C(=O)N1CCC[C@H]1C(=O)N1CCC[C@H]1C(=O)N[C@@H](CO)C(N)=O)C(C)C [Example 1] | 575 nM | 0.0476 nM |
| CC[C@H](C)[C@H](NC(=O)[C@H](CO)NC(=O)[C@H](Cc1ccc(O)cc1)NC(=O)[C@H](CC(=O)O)NC(=O)[C@H](CO)NC(=O)[C@@H](NC(=O)[C@H](Cc1ccccc1)NC(=O)[C@@H](NC(=O)CNC(=O)[C@H](CCC(=O)O)NC(=O)[C@@H](C)NC(=O)[C@@H](N)Cc1ccc(O)cc1)[C@@H](C)O)[C@@H](C)CC)C(=O)N[C@@H](CC(C)C)C(=O)N[C@@H](CC(C)C)C(=O)N[C@@H](CC(=O)O)C(=O)N[C@@H](CCCCN)C(=O)N[C@@H](CCCCNC(=O)COCCOCCNC(=O)COCCOCCNC(=O)CC[C@H](NC(=O)CCCCCCCCCCCCCCCCC(=O)O)C(=O)O)C(=O)N[C@@H](C)C(=O)N[C@@H](CCC(N)=O)C(=O)NC(C)(C)C(=O)N[C@@H](CC(=O)O)C(=O)N[C@@H](Cc1ccccc1)C(=O)N[C@H](C(=O)N[C@@H](CC(N)=O)C(=O)N[C@@H](Cc1c[nH]c2ccccc12)C(=O)N[C@@H](CC(C)C)C(=O)N[C@@H](CC(C)C)C(=O)N[C@@H](C)C(=O)N[C@@H](CCC(N)=O)C(=O)NCC(=O)N1CCC[C@H]1C(=O)N[C@@H](CO)C(=O)N[C@@H](CO)C(=O)NCC(=O)N[C@@H](C)C(=O)N1CCC[C@H]1C(=O)N1CCC[C@H]1C(=O)N1CCC[C@H]1C(=O)N[C@@H](CO)C(N)=O)C(C)C [Example 2] | 608 nM | 0.0123 nM |
| CC[C@H](C)[C@H](NC(=O)[C@H](Cc1ccccc1)NC(=O)[C@@H](NC(=O)CNC(=O)[C@H](CCC(=O)O)NC(=O)C(C)(C)NC(=O)[C@@H](N)Cc1ccc(O)cc1)[C@@H](C)O)C(=O)N[C@@H](CO)C(=O)N[C@@H](CC(=O)O)C(=O)N[C@@H](Cc1ccc(O)cc1)C(=O)N[C@@H](CO)C(=O)N[C@H](C(=O)N[C@@](C)(CC(C)C)C(=O)N[C@@H](CC(C)C)C(=O)N[C@@H](CC(=O)O)C(=O)N[C@@H](CCCCN)C(=O)N[C@@H](CCCCNC(=O)COCCOCCNC(=O)COCCOCCNC(=O)CC[C@H](NC(=O)CCCCCCCCCCCCCCCCCCC(=O)O)C(=O)O)C(=O)N[C@@H](Cc1c[nH]cn1)C(=O)N[C@@H](CCC(N)=O)C(=O)NC(C)(C)C(=O)N[C@@H](CC(=O)O)C(=O)N[C@@H](Cc1ccccc1)C(=O)N[C@H](C(=O)N[C@@H](CCC(=O)O)C(=O)N[C@@H](Cc1ccncc1)C(=O)N[C@@H](CC(C)C)C(=O)N[C@@H](CC(C)C)C(=O)N[C@@H](CCC(=O)O)C(=O)N[C@@H](C)C(=O)NCC(=O)N1CCC[C@H]1C(=O)N[C@@H](CO)C(=O)N[C@@H](CO)C(=O)NCC(=O)N[C@@H](C)C(=O)N1CCC[C@H]1C(=O)N1CCC[C@H]1C(=O)N1CCC[C@H]1C(=O)N[C@@H](CO)C(N)=O)C(C)C)[C@@H](C)CC [Example 3] | 1250 nM | 0.0178 nM |
